# In publication PMC3678512, “Synthesis and physicochemical characterization of novel phenotypic probes targeting the nuclear factor-kappa B signaling pathway” (Beilstein Journal of Organic Chemistry, 2013):
# Read-outs that look alike come from different tables or passages of the source.
# Assays:
# Raf = test: KINOMEscan (DiscoveRx) selectivity profiling, Raf; type: binding; settings: 10 uM
# Source text: (§1) This probe was discovered after two separate screening campaigns totaling ~110,000 compounds.
# PKCθ = test system: PKCθ; parameters: method as in PMID 20481485, PMID 20153655; settings: 4 at concentrations up to 8 μM; cited from earlier work
# [1] = test system: NF-κB activation in HEK 293T cells; test: NF-κB reporter gene assay in HEK 293T cells; type: cell-based, human; settings: for Selectivity over NF-κB activation in HEK 293T cells: relative to 697 pre-B cell line potency
# Source text: (§2) Phenotypic screening for noncanonical NF-κB pathway selective inhibitors of IL-8 production in HEK 293, HEK 293T (ML029) and 697 pre-B cells (ML236 and ML237): Most pathways for NF-κB activation converge on the IκB kinases (IKKs), and more than nine signaling routes have been identified. While IKKs therefore represent attractive targets for drug discovery programs, the selectivity envisioned for an acceptable therapeutic index has remained elusive as inhibitors of IKKs indiscriminately suppress all known NF-κB activation pathways. Within this project, new probes were sought that were not active via the currently known receptor-driven pathways and IκB kinases, but attenuated NF-κB transcriptional activity as measured by a luciferase-based reporter gene assay with validation using a panel of known receptor and kinase-based counter screens.
# (§3) Therefore, an HTS campaign was initiated to identify compounds active in these specific cell subtypes by using the established HTS NF-κB reporter gene assay format. This included screening of a larger (~330,600 compound) MLSMR collection to ensure identification of additional chemical scaffolds not previously available. From this campaign two new cell-active NF-κB inhibitors were derived that were both selective against the NF-κB pathway induced by known PKC activators (phorbol myristic acetate (PMA)/ionomycin) and were selective toward the 697 pre-B cell line. It is interesting to note that no compounds meeting probe selectivity criteria were identified within the T cell (HEK 293T) specific assay. The first oxadiazole-based probe ML236 (8) was potent (0.035 μM) in the 697 pre-B cell line and >400-fold selective over both the NF-κB activation in HEK 293T cells and against TNFα-mediated NF-κB activation. In comparison, the second oxazole-based probe 12 is also potent (0.2 μM) in the 697 pre-B cell line and >400-fold selective over both the NF-κB activation in HEK 293T cells and against TNFα mediated NF-κB activation as measured in our reporter gene assay format.
# [2] = Hepatic microsome stability, mouse; type: in vitro ADME; settings: compound at 1 μM, 60 min
# Description: (§4) The probes were evaluated using known in vitro ADME/T assays to understand their overall pharmacological properties (Table 2). […] The PAMPA (parallel artificial membrane permeability assay) assay is used as an in vitro model of passive, transcellular permeability. An artificial membrane immobilized on a filter is placed between a donor and acceptor compartment. […] It is not yet known whether it represents a species specific CPY450 inhibitor.
# [3] = test system: NF-κB activation in 697 pre-B cell line; test: NF-κB reporter gene assay in 697 pre-B cells (PMA/ionomycin induced); type: cell-based; settings: read-out: Potency in 697 pre-B cell line (NF-κB reporter)
# Source text: as §2, §3
# JAK2 = molecular target: T1, JAK2 (Homo sapiens, UniProt O60674); test: KINOMEscan (DiscoveRx) selectivity profiling, JAK2; type: binding
# T1 construct: purchased DiscoveRx
# Source text: as §1
# [4] = Hepatic toxicity in immortalized human hepatocytes; type: cell-based; settings: Fa2N-4 immortalized human hepatocytes, read-out: Hepatic toxicity LC50
# Description: as §4
# Aqueous solubility = type: physicochemical; settings: for Solubility (in words): across pH 5 to 7.4
# Description: as §4
# 353 kinases = test: KINOMEscan (DiscoveRx) selectivity profiling, panel; type: binding; settings: 10 uM; out of the 353 kinases surveyed
# Source text: as §1
# [5] = test system: NF-κB transcriptional activity in HEK 293 cells; parameters: method as in PMID 20481485; settings: NF-κB reporter, read-out: IC50 in the HEK 293 cell assay; cited from earlier work
# PKCβ = test system: PKCβ; parameters: method as in PMID 20481485, PMID 20153655; settings: 4 at concentrations up to 8 μM; cited from earlier work
# IKKβ = test system: IKKβ; parameters: method as in PMID 20481485, PMID 20153655; settings: 4 at concentrations up to 8 μM; cited from earlier work
# [6] = Hepatic microsome stability, human; type: in vitro ADME; settings: for Hepatic microsome stability, human (% remaining): compound at 1 μM, 60 min
# Description: as §4
# TLK1 = molecular target: T2, TLK1 (Homo sapiens, UniProt Q9UKI8); test: KINOMEscan (DiscoveRx) selectivity profiling, TLK1; type: binding
# T2 construct: purchased DiscoveRx
# T2 sequence (Q9UKI8 1-766): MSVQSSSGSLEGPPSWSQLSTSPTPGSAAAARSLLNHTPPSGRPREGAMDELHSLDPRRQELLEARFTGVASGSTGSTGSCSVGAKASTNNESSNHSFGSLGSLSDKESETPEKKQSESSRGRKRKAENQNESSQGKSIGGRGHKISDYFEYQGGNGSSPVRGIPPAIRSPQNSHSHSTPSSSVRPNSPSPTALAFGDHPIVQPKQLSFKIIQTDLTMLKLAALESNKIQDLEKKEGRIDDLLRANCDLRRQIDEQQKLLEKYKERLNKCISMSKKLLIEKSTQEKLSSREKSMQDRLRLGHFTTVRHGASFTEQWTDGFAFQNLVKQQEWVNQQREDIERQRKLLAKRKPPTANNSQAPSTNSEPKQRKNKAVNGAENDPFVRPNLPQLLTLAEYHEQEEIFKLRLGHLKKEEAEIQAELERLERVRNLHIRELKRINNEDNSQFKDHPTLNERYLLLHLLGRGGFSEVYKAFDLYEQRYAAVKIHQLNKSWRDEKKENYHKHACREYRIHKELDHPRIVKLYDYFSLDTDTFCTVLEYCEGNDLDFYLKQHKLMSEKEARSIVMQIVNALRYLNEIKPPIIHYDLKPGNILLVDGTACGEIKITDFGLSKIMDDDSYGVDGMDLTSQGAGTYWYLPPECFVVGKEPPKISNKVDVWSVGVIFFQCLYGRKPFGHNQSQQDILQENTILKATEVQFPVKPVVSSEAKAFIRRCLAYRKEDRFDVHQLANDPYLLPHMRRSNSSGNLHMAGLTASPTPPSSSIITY
# Source text: as §1
# [7] = PAMPA (parallel artificial membrane permeability assay); type: in vitro ADME; settings: for PAMPA Pe, donor pH 5.0: donor pH 5.0, acceptor pH 7.4, compound at 50 μM; for PAMPA Pe, donor pH 6.2: donor pH 6.2, acceptor pH 7.4, compound at 50 μM; for PAMPA Pe, donor pH 7.4: donor pH 7.4, acceptor pH 7.4, compound at 50 μM
# Description: as §4
# [8] = test system: NOD2-dependent IL-8 secretion in MCF-7 cells; test: NOD2-dependent IL-8 secretion in MCF-7 cells; type: cell-based
# [9] = test system: NOD1 (γ-tri-DAP) dependent IL-8 secretion; test: NOD1 (γ-tri-DAP) dependent IL-8 secretion; type: cell-based
# [10] = test system: TNF-α-dependent IL-8 secretion in MCF-7 cells; test: TNF-α-dependent IL-8 secretion in MCF-7 cells; type: cell-based
# [11] = test system: TNFα-mediated NF-κB activation; test: TNFα-mediated NF-κB activation reporter gene assay; type: cell-based; settings: relative to 697 pre-B cell line potency
# Source text: as §3
# [12] = aqueous medium, pH 6.2, aqueous buffer, read-out: Aqueous solubility pH 6.2
# [13] = pH 5.0, read-out: Aqueous solubility pH 5.0
# [14] = pH 7.4, read-out: Aqueous solubility pH 7.4
# [15] = aqueous medium, aqueous buffer, pH 5.0, read-out: Aqueous solubility pH 5.0
# [16] = aqueous medium, pH 7.4, aqueous buffer, read-out: Aqueous solubility pH 7.4
# T1 sequence (O60674 whole entry): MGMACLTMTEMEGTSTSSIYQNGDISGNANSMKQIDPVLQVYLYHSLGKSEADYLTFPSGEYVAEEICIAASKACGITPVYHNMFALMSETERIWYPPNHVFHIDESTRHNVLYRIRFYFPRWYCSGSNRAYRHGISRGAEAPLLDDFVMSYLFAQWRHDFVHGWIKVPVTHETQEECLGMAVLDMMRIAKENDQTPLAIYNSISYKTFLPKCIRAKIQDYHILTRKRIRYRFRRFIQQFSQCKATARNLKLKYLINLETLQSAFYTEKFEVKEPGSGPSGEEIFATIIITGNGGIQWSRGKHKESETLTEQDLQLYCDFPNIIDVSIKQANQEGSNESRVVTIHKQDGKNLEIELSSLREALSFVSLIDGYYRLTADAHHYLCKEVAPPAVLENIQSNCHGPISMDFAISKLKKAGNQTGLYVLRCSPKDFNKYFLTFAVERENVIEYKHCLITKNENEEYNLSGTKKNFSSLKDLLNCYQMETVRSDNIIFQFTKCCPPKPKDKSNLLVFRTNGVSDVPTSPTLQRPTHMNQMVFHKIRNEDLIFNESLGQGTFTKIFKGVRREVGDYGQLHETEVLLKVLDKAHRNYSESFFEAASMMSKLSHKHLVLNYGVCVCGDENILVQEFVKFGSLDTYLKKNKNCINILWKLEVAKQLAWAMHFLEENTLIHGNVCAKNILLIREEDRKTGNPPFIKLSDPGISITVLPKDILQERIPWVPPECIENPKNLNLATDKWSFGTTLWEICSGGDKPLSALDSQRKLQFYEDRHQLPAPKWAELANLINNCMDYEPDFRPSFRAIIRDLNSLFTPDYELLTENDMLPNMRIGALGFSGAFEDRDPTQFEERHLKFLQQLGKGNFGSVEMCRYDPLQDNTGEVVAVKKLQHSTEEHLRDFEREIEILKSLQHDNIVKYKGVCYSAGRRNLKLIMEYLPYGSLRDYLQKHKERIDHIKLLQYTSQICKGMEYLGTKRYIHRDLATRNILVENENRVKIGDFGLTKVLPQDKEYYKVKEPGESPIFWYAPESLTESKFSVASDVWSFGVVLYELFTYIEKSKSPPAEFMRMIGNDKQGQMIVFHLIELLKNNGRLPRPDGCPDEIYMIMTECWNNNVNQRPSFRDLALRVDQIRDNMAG
Structure (SMILES),Suppression of PKCθ (PKCθ),"Hepatic microsome stability, mouse (% remaining) [2]",IC50 [3],CC50 [4],Solubility (in words) (Aqueous solubility),solubility (Aqueous solubility; [12]),solubility (Aqueous solubility; [13]),solubility (Aqueous solubility; [14]),Suppression of IKKβ (IKKβ),"Hepatic microsome stability, human (% remaining) [6]","PAMPA Pe, donor pH 5.0 [7]","PAMPA Pe, donor pH 6.2 [7]","PAMPA Pe, donor pH 7.4 [7]",Selectivity over NF-κB activation in HEK 293T cells [1],solubility (Aqueous solubility; [15]),solubility (Aqueous solubility; [16]),Selectivity against TNFα-mediated NF-κB activation [11],also measured
Cc1cc2nc(NCCCO)n(CC(=O)c3cc(C(C)(C)C)c(O)c(C(C)(C)C)c3)c2cc1C [Probe 4],failed to suppress,0.5 % remaining,> 30 µM,> 50 µM,good solubility,1.1 µM,90 µM,1.5 µM,failed to suppress,26 % remaining,299 10^−6 cm/s,710 10^−6 cm/s,441 10^−6 cm/s,–,–,–,–,"Raf inhibition (Raf): 57%; IC50 ([1]; Homo sapiens, HEK 293T cells, read-out: Activity in HEK 293T cell line (NF-κB reporter)): > 30 µM; inhibition at 10 µM (JAK2): 53%; Number of kinases inhibited >50% (353 kinases): 3; IC50 [5]: 0.07 µM; Suppression of PKCβ (PKCβ): failed to suppress; inhibition at 10 µM (TLK1): 70%"
Cc1ccc(S(=O)(=O)n2c(N)nc3ccccc32)cc1 [Probe 13],–,0.8 % remaining,–,> 50 µM,moderate solubility,–,7.0 µM,7.0 µM,–,41.8 % remaining,491 10^−6 cm/s,562 10^−6 cm/s,382 10^−6 cm/s,–,–,–,–,"solubility (Aqueous solubility; pH 6.2, read-out: Aqueous solubility pH 6.2): 5.9 µM; Inhibition of NOD2-dependent IL-8 secretion [8]: neither inhibited; Inhibition of NOD1 (γ-tri-DAP) dependent IL-8 secretion [9]: selectively inhibited IL-8 secretion; Inhibition of TNF-α-dependent IL-8 secretion [10]: neither inhibited"
"CN[C@@H]1C[C@H]2O[C@@](C)([C@@H]1OC)n1c3ccccc3c3c4c(c5c6ccccc6n2c5c31)C(=O)NC4 [staurosporine, reference compound]",potent inhibition,–,–,–,–,–,–,–,potent inhibition,–,–,–,–,–,–,–,–,–
CCOc1ccc(-c2nc(CSCC(=O)NC3CC3)c(C)o2)cc1 [Probe 12],–,0 % remaining,0.2 µM,> 50 µM,good solubility,133 µM,–,–,–,22.7 % remaining,513 10^−6 cm/s,541 10^−6 cm/s,59 10^−6 cm/s,> 400 fold,112 µM,160 µM,> 400 fold,–
CNC(=O)CCc1nc(-c2ccc(C(C)(C)C)cc2)no1 [Probe 8],–,4.9 % remaining,0.035 µM,> 50 µM,good solubility,101 µM,–,–,–,100 % remaining,751 10^−6 cm/s,755 10^−6 cm/s,746 10^−6 cm/s,> 400 fold,92 µM,103 µM,> 400 fold,Metabolic stability in human hepatic microsomes (in words) ([6]; one hour of exposure): no apparent instability
